Results: ChEMBL document CHEMBL1201862, “PubChem BioAssay data set” (2004)
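Interpolation was linear, between the two tested concentrations surrounding the appropriate level; five concentrations were tested over 48 hours in 96-well plates. GI50 marks 50% less growth.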 The source made the active and inactive calls. No stated cut-off is given here; in the data, active = GI50 up to about 1.1 µM and inactive = higher.

Assays:
Test in all cases: NCI tumour cell line growth inhibition, 48 h
HCT-116 = tested on: HCT-116
DU-145 = tested on: DU-145
PC-3 = tested on: PC-3
SK-MEL-5 = tested on: SK-MEL-5
SNB-19 = tested on: SNB-19
CAKI-1 = tested on: CAKI-1
SK-MEL-2 = tested on: SK-MEL-2
KM12 = tested on: KM12
HCC 2998 = tested on: HCC 2998
SF-295 = tested on: SF-295
MCF7 = tested on: MCF7
MDA-MB-435 = tested on: MDA-MB-435
U-251 = tested on: U-251
NCI-H23 = tested on: NCI-H23
LOX IMVI = tested on: LOX IMVI
EKVX = tested on: EKVX
SR = tested on: SR
SNB-75 = tested on: SNB-75
IGROV-1 = tested on: IGROV-1

SMILES	GI50 (HCT-116)	GI50 (DU-145)	GI50 (PC-3)	GI50 (SK-MEL-5)	GI50 (SNB-19)	GI50 (CAKI-1)	GI50 (SK-MEL-2)	GI50 (KM12)	GI50 (HCC 2998)	GI50 (SF-295)	GI50 (MCF7)	GI50 (MDA-MB-435)	GI50 (U-251)	GI50 (NCI-H23)	GI50 (LOX IMVI)	GI50 (EKVX)	GI50 (SR)	GI50 (SNB-75)	GI50 (IGROV-1)
CN(C)CCn1c(=O)c2ccc3c4c(nn3CCN(C)C)c3ccccc3n(c1=O)c24	0.193 µM (active)	0.208 µM (active)	0.351 µM (active)	0.728 µM (active)	0.313 µM (active)	0.0608 µM (active)	0.423 µM (active)	0.205 µM (active)	0.129 µM (active)	0.0292 µM (active)	0.188 µM (active)	0.23 µM (active)	0.196 µM (active)	0.449 µM (active)	0.214 µM (active)	< 0.0113 µM (active)	< 0.127 µM (active)	< 0.0146 µM (active)	
CCN(CC)c1ccc2cc(-c3nnc(-c4ccccc4O)o3)c(=O)oc2c1	5.97 µM (inactive)	10.3 µM (inactive)	10.3 µM (inactive)	6.93 µM (inactive)	9.68 µM (inactive)	11.5 µM (inactive)	14.5 µM (inactive)	12.1 µM (inactive)	13.6 µM (inactive)	11.1 µM (inactive)	10.3 µM (inactive)	12.9 µM (inactive)	7.71 µM (inactive)	8.93 µM (inactive)	6.73 µM (inactive)	17 µM (inactive)	5.87 µM (inactive)		3.12 µM (inactive)
Cc1ccc(CC(=O)Nc2ccc(NC(=O)CNC(=O)/C=C/c3ccc(-c4ccccc4)cc3)cc2C(=O)c2ccccc2)cc1	1.36 µM (inactive)	2.49 µM (inactive)	1.98 µM (inactive)	1.69 µM (inactive)	4.57 µM (inactive)	4.9 µM (inactive)	13.9 µM (inactive)	3.56 µM (inactive)	1.67 µM (inactive)	2.22 µM (inactive)	1.82 µM (inactive)	3.66 µM (inactive)	2.77 µM (inactive)	2.06 µM (inactive)	3.69 µM (inactive)	3.47 µM (inactive)	1.84 µM (inactive)		8.24 µM (inactive)
Clc1nc(Cl)c(Cc2ccccc2)c(Cl)n1	1.91 µM (inactive)	14.8 µM (inactive)	3.7 µM (inactive)	2.37 µM (inactive)	17.9 µM (inactive)		7.45 µM (inactive)	7.87 µM (inactive)	13.7 µM (inactive)	14.4 µM (inactive)	5.12 µM (inactive)	4.32 µM (inactive)	11.7 µM (inactive)	8.32 µM (inactive)	3.03 µM (inactive)	19 µM (inactive)	4.26 µM (inactive)	5.52 µM (inactive)	5.97 µM (inactive)
CC(C)(C)OC(=O)NC(Cc1ccc(OC(C)(C)C)cc1)C(=O)N[C@H]1CC[C@H](C(=O)O)C1 (some centres not stated)	> 100 µM (inactive)	> 100 µM (inactive)	89.1 µM (inactive)	> 100 µM (inactive)	> 100 µM (inactive)		> 100 µM (inactive)	> 100 µM (inactive)	> 100 µM (inactive)	> 100 µM (inactive)	> 100 µM (inactive)	> 100 µM (inactive)	> 100 µM (inactive)	> 100 µM (inactive)	> 100 µM (inactive)	> 100 µM (inactive)	> 100 µM (inactive)	> 100 µM (inactive)	> 100 µM (inactive)
O=c1cnn(C2OC(C(O)CO)C(O)C2O)c(=O)[nH]1 (configuration not stated)	> 100 µM (inactive)	> 100 µM (inactive)	> 100 µM (inactive)	> 100 µM (inactive)	> 100 µM (inactive)	> 100 µM (inactive)	> 100 µM (inactive)	> 100 µM (inactive)	> 100 µM (inactive)		> 100 µM (inactive)	> 100 µM (inactive)	> 100 µM (inactive)	> 100 µM (inactive)	> 100 µM (inactive)	> 100 µM (inactive)	> 100 µM (inactive)	> 100 µM (inactive)	> 100 µM (inactive)
O=C1C2=Cc3ccccc3CCN2c2ccc([N+](=O)[O-])cc21	> 100 µM (inactive)	96.2 µM (inactive)	> 100 µM (inactive)	21.9 µM (inactive)	> 100 µM (inactive)	69.3 µM (inactive)		> 100 µM (inactive)	> 100 µM (inactive)	36.6 µM (inactive)	2.92 µM (inactive)	> 100 µM (inactive)	> 100 µM (inactive)	38.5 µM (inactive)	92.7 µM (inactive)	21.4 µM (inactive)	66.8 µM (inactive)	> 100 µM (inactive)	> 100 µM (inactive)
CC(O)C1(CNc2cc(Cl)nc(N)n2)CCC1 (configuration not stated)	> 100 µM (inactive)	> 100 µM (inactive)	> 100 µM (inactive)	70.1 µM (inactive)	> 100 µM (inactive)	> 100 µM (inactive)	> 100 µM (inactive)	> 100 µM (inactive)	> 100 µM (inactive)	> 100 µM (inactive)	> 100 µM (inactive)	> 100 µM (inactive)	> 100 µM (inactive)	> 100 µM (inactive)	> 100 µM (inactive)	59.3 µM (inactive)	> 100 µM (inactive)		> 100 µM (inactive)
CCCCNC1CCC2(SCCS2)c2[nH]c3ccccc3c21 (configuration not stated)	7.4 µM (inactive)	19.1 µM (inactive)	7.46 µM (inactive)	5.14 µM (inactive)	29.6 µM (inactive)	2.04 µM (inactive)		6.37 µM (inactive)	18.9 µM (inactive)	34.5 µM (inactive)	3.11 µM (inactive)	5.21 µM (inactive)	43.1 µM (inactive)	32 µM (inactive)	2.64 µM (inactive)	37.2 µM (inactive)	3.76 µM (inactive)	43.1 µM (inactive)	25.4 µM (inactive)
CCSC1=CC(=O)c2nc3ccccc3c3ccnc1c23	2.72 µM (inactive)	10.8 µM (inactive)	2.17 µM (inactive)		42.2 µM (inactive)	3.82 µM (inactive)	1.91 µM (inactive)	3.9 µM (inactive)	8.89 µM (inactive)	13.8 µM (inactive)	1.88 µM (inactive)	1.77 µM (inactive)	3.33 µM (inactive)	2.64 µM (inactive)	4.51 µM (inactive)	2.58 µM (inactive)	2.7 µM (inactive)	6.43 µM (inactive)	2.72 µM (inactive)
COc1ccc(C2(c3ccc(OC)cc3)OC(=O)c3cccc4cccc2c34)cc1	3.71 µM (inactive)	> 100 µM (inactive)	2.16 µM (inactive)	5.25 µM (inactive)	94 µM (inactive)	2.96 µM (inactive)	8 µM (inactive)	3.85 µM (inactive)	3.14 µM (inactive)	3.97 µM (inactive)	4.78 µM (inactive)	2.69 µM (inactive)	4.38 µM (inactive)	12.6 µM (inactive)	8.89 µM (inactive)	2.76 µM (inactive)	2.54 µM (inactive)		5.93 µM (inactive)
COC(=O)c1ccc(/C=N/c2ccc(S(N)(=O)=O)cc2)cc1	37.1 µM (inactive)	> 100 µM (inactive)	> 100 µM (inactive)	> 100 µM (inactive)	> 100 µM (inactive)	> 100 µM (inactive)	22 µM (inactive)	> 100 µM (inactive)	> 100 µM (inactive)	> 100 µM (inactive)	41.8 µM (inactive)	35.4 µM (inactive)	67 µM (inactive)	0.0188 µM (active)	33.5 µM (inactive)	> 100 µM (inactive)	43 µM (inactive)	58.9 µM (inactive)	
CCOC(=O)Nc1cc2c(c(N)n1)N=C(c1ccccc1)CN2	< 0.01 µM (active)	< 0.01 µM (active)	< 0.01 µM (active)	< 0.01 µM (active)	< 0.01 µM (active)	< 0.01 µM (active)		< 0.01 µM (active)	< 0.01 µM (active)	< 0.01 µM (active)	0.0317 µM (active)	< 0.01 µM (active)	< 0.01 µM (active)	< 0.01 µM (active)	< 0.01 µM (active)	< 0.0187 µM (active)	< 0.01 µM (active)	< 0.01 µM (active)	< 0.01 µM (active)
C[C@@H]([C@H]1CC[C@@]2(C)[C@@H]3CC[C@@H]4C(=CC3=CC[C@]12C)CC[C@H](N(C)C)C4(C)C)N(C)C [BUXAMINE A]	> 100 µM (inactive)	> 100 µM (inactive)	> 100 µM (inactive)	> 100 µM (inactive)	> 100 µM (inactive)	> 100 µM (inactive)		> 100 µM (inactive)	> 100 µM (inactive)	> 100 µM (inactive)	> 100 µM (inactive)	> 100 µM (inactive)	> 100 µM (inactive)	> 100 µM (inactive)	> 100 µM (inactive)	> 100 µM (inactive)	> 100 µM (inactive)		> 100 µM (inactive)
Oc1cnc2c(O)cccc2c1 [JINEOL]	40.8 µM (inactive)	57.3 µM (inactive)	36.8 µM (inactive)		58.9 µM (inactive)		64.4 µM (inactive)	12.8 µM (inactive)	43.4 µM (inactive)	36.8 µM (inactive)	30.7 µM (inactive)	80.2 µM (inactive)	48.9 µM (inactive)		26.2 µM (inactive)	15.9 µM (inactive)	40.6 µM (inactive)	20.7 µM (inactive)	20.3 µM (inactive)
